According to patent US20250170136A1, “1,2,4-TRIAZIN-3(2H)-ONE COMPOUNDS FOR THE TREATMENT OF HYPERPROLIFERATIVE DISEASES” (BAYER AKTIENGESELLSCHAFT, priority 2019, published 2025):

Assays:
42-MG-BA cells = experiment: Cell proliferation measurement (CellTiter-Glo, 72 h); type: cell-based; settings: Homo sapiens, anti-proliferation, Brain (Glioblastoma)
Description: (§1) The antiproliferative activity of the compounds of the general formula (I) was examined in vitro in human cancer cells. […] After 24 h, cells on one plate (0 h plate) were treated with 30 μl/cavity of CTG solution (Promega Cell Titer Glo (catalogue #G755B and G756B)) and incubated at room temperature for 10 min, and luminescence was measured by means of a VICTOR V (Perkin Elmer), in order to determine cell viability on commencement of treatment. The cells on the test plate were treated with the compounds of the general formula (I) as and incubated at 37° C. for 72 h. The compounds were added to the cells by means of an HP D300 digital dispenser in a 10-step 2,5-fold dilution series generally starting at a maximum final drug concentration of 100 nM, or 30 μM in the case of COV318. As control, the cells were treated with vehicle (DMSO at 0.3% final concentration). After 72 h, the cells were treated with 30 μl/cavity of CTG solution (Promega Cell Titer Glo (catalogue #G755B and G756B)) and incubated at room temperature for 10 min, and luminescence was measured by means of a VICTOR V (Perkin Elmer), in order to determine cell viability at the end of treatment. The percentage effect on cell growth and the IC50 derived therefrom were determined for each test substance using the values from the 0 h plate (=maximum inhibition) and the DMSO control (=minimum inhibition). The IC50 values were calculated using a 4-parameter fit.

92.1 cells = experiment: as above; type: cell-based; settings: Homo sapiens, anti-proliferation, 92.1, Uveal melanoma
Description: as §1

COV318 cells = experiment: as above; type: cell-based; settings: Homo sapiens, anti-proliferation, COV318, Ovarian cancer, maximum concentration 30 μM
Description: as §1

DBTRG05MG cells = experiment: as above; type: cell-based; settings: Homo sapiens, DBTRG-05MG, anti-proliferation, Brain (Glioblastoma)
Description: as §1

DKMG cells = experiment: as above; type: cell-based; settings: Homo sapiens, anti-proliferation, Brain (Glioblastoma)
Description: as §1

GAMG cells = experiment: as above; type: cell-based; settings: Homo sapiens, anti-proliferation, Brain (Glioblastoma)
Description: as §1

GB1 cells = experiment: as above; type: cell-based; settings: Homo sapiens, GB-1, anti-proliferation, GB1, Brain (Glioblastoma)
Description: as §1

H4 cells = experiment: as above; type: cell-based; settings: Homo sapiens, anti-proliferation, H4, Brain (Astrocytoma)
Description: as §1

HeLa cells = experiment: as above; type: cell-based; settings: Homo sapiens, anti-proliferation
Description: as §1

IGR37 cells = experiment: as above; type: cell-based; settings: Homo sapiens, IGR-37, anti-proliferation, IGR37, Melanoma
Description: as §1

LN229 cells = experiment: as above; type: cell-based; settings: Homo sapiens, LN-229, anti-proliferation, LN229, Brain (Glioblastoma)
Description: as §1

M059J cells = experiment: as above; type: cell-based; settings: Homo sapiens, anti-proliferation, Brain (Glioblastoma)
Description: as §1

Mel202 cells = experiment: as above; type: cell-based; settings: Homo sapiens, anti-proliferation, Mel202, Uveal melanoma
Description: as §1

PFSK cells = experiment: as above; type: cell-based; settings: Homo sapiens, anti-proliferation, Brain (Primitive neuroectodermal tumor)
Description: as §1

SK-MEL-3 cells = experiment: as above; type: cell-based; settings: Homo sapiens, SK-MEL3; anti-proliferation, SK-MEL-3, 72 h
Description: as §1

SW1783 cells = experiment: as above; type: cell-based; settings: Homo sapiens, anti-proliferation, SW1783, Brain (Anaplastic astrocytoma)
Description: as §1

T98G cells = experiment: as above; type: cell-based; settings: Homo sapiens, anti-proliferation, Brain (Glioblastoma)
Description: as §1

U-251MG cells = experiment: as above; type: cell-based; settings: Homo sapiens, anti-proliferation, Brain (Glioblastoma: Astrocytoma)
Description: as §1

U118-MG cells = experiment: as above; type: cell-based; settings: Homo sapiens, U-118-MG, anti-proliferation, Brain (Glioblastoma: Astrocytoma)
Description: as §1

YKG1 cells = experiment: as above; type: cell-based; settings: Homo sapiens, YKG-1, anti-proliferation, YKG1, Brain (Glioblastoma)
Description: as §1

[1] = In vivo pharmacokinetics in dogs (i.v.); settings: Dog/female/Beagle, 0.3 mg/kg i.v., PEG400 50% + Water 40% + EtOH 10%
Description: For in vivo pharmacokinetic experiments test compounds were administered to female CD-1 mice, male Wistar rats, Beagle dogs or Cynomolgus monkeys intravenously at doses of 0.3 to 1 mg/kg formulated as solutions using solubilizers such as PEG400 in well-tolerated amounts.
Studies may also have been performed as cassette administrations of up to 3 compounds given together simultaneously in low doses.
For pharmacokinetics after intravenous administration test compounds were given in the female mice and male rat as i.v. bolus and in dogs and monkeys as short term infusion (15 min). Blood samples were taken e.g. at 2 min, 8 min, 15 min, 30 min, 45 min, 1 h, 2 h, 4 h, 6 h, 8 h and 24 h after dosing from the vena jugularis (mouse, rat) or vena saphena (dog, monkey). […] PK parameters were calculated by non-compartmental analysis using a PK calculation software (e.g. Phoenix WinNonlin®, Certara USA, Inc.).
PK parameters derived from concentration-time profiles after i.v.: CLplasma (in L/kg/h): Total plasma clearance of test compound calculated by dose (in μg/kg) divided by area under the concentration-time curve from t=0 h to infinity (extrapolated) (AUCinf in μg*h/L); CLblood: Total blood clearance of test compound: CLplasma*Cp/Cb (in L/kg/h) with Cp/Cb being the ratio of test compound concentrations in plasma and blood. […]

Structure (SMILES): C[C@@H]1NC(=O)NN=C1c1ccc(-n2ccc(C(F)(F)F)n2)c(C(F)(F)F)c1 [Example 1, (5S)-5-methyl-6-{3-(trifluoromethyl)-4-[3-(trifluoromethyl)-1H-pyrazol-1-yl]phenyl}-4,5-dihydro-1,2,4-triazin-3(2H)-one]
- IC50 (42-MG-BA cells): > 100 nM
- IC50 (92.1 cells): 19.4 nM
- IC50 (COV318 cells): 8930 nM
- IC50 (DBTRG05MG cells): 30.5 nM
- IC50 (DKMG cells): 16.6 nM
- IC50 (GAMG cells): > 100 nM
- IC50 (GB1 cells): 8.96 nM
- IC50 (H4 cells): 47.7 nM
- IC50 (HeLa cells): 1.5 nM
- IC50 (IGR37 cells): 4.01 nM
- IC50 (LN229 cells): > 100 nM
- IC50 (M059J cells): 40.5 nM
- IC50 (Mel202 cells): 74.2 nM
- IC50 (PFSK cells): 2.95 nM
- IC50 (SK-MEL-3 cells): 4 nM
- IC50 (SW1783 cells): > 100 nM
- IC50 (T98G cells): > 100 nM
- IC50 (U-251MG cells): > 100 nM
- IC50 (U118-MG cells): > 100 nM
- IC50 (YKG1 cells): > 100 nM
- CLblood [1]: 4.5 mL/min/kg
